Results from paper PMC7956476, “Quinoline Functionalized Schiff Base Silver (I) Complexes: Interactions with Biomolecules and In Vitro Cytotoxicity, Antioxidant and Antimicrobial Activities” (Molecules, 2021).
Values after ≈ are worked out from the molar mass of the structure shown. Read-outs that look alike come from different tables or passages of the source.

Tests used:
[1] = system: Staphylococcus aureus ATCC 700699 (methicillin-resistant); set-up: method as in doi:10.1016/j.poly.2019.06.038; conditions: standard; cited from earlier work
[2] = system: Salmonella typhimurium ATCC 14026; conditions: standard; S. typhi; cited from earlier work
[3] = system: Pseudomonas aeruginosa ATCC 27853; set-up: method as in doi:10.1016/j.poly.2019.06.038; conditions: standard; P. aeruginosa; cited from earlier work
[4] = system: Staphylococcus aureus ATCC 25923; set-up: method as in doi:10.1016/j.poly.2019.06.038; conditions: standard; S. aureus; cited from earlier work
[5] = system: Escherichia coli ATCC 25922; set-up: method as in doi:10.1016/j.poly.2019.06.038; conditions: standard; E. coli; cited from earlier work
[6] = biological target: bovine serum albumin (BSA) (Bos taurus, UniProt P02769); test: Albumin binding by absorption spectroscopy titration
Description: Bovine serum albumin (BSA) was used as the protein standard in this study because of its close resemblance to human serum albumin (HSA), its stability, high solubility, neutrality in many biochemical reactions and low cost. In protein binding study, absorption spectroscopy titration is a known method used in studying the conformational changes in proteins, and this protein is characterized by an intense absorbance peak at 280 nm depicting the microenvironment around tyrosine and tryptophan residue polarity.
The absorbance assay of albumin binding is a very simple method used in identifying the conformational changes in protein. […] A stock solution of bovine serum albumin (BSA) was prepared by dissolving an appropriate amount of BSA in phosphate buffer saline solution (pH 7.2) under constant stirring for 1 h at 25 °C. It was kept at 4 °C and used within four days. […] The stock solution of the complex was prepared by dissolving 1 mmol of the complexes in DMSO. The absorption titration assay was done by adding different concentrations (0–10 µM) of the complexes to a constant BSA concentration (6 µM). The sample solution was incubated after each addition of the concentrations for 10 min at 25 °C before recording the absorbance at λmax 280 nm.

[7] = Ferric reducing antioxidant power (FRAP) assay; assay type: biochemical; conditions: done in triplicate
Description: Antioxidants are important in protecting the human body against damage by reactive oxygen species (ROS). Accumulation of ROS in the cells may lead to damage of the DNA, RNA, and proteins which subsequently leads to several physiological disorders such as cardiovascular disease, diabetes, rheumatism, atherosclerosis, cancer, aging and cell death. […] The free radical scavenging ability of all ligands and complexes in this study were investigated using ferric reducing antioxidant power (FRAP). In antioxidant studies, FRAP assay is often preferred because it is simple, fast, economical, and direct in antioxidant measurement. FRAP assay is based on the electron-donating ability of an antioxidant compound. This involves the reduction of a colorless Fe^3+ tripyridyltriazine complex (Fe^3+ (TPTZ)) to an intense blue-colored Fe^2+ tripyridyltriazine complex (Fe^2+ (TPTZ)) by the electron-donating antioxidants at low pH [69]. The reducing power is to determine the reductive ability of the test compounds.
Antioxidant activity studies of L1–L5 and Q1–Q15 were done using ferric reducing antioxidant power (FRAP) assay. The ferric reducing antioxidant power assay is often used to evaluate the ability of an antioxidant to donate an electron. […] The resulting mixture was incubated at 50 °C for 20 min, and 2.5 mL of 10% trichloroacetic acid was added to acidify the mixture. After that, 1 mL of the acidified mixture was added to 1 mL of distilled water and 0.5 mL of 0.1% FeCl3. The absorbance of the resulting solution was then measured at 700 nm. The antioxidant power of the compounds was expressed as a percentage of ferric reducing antioxidant power Ascorbic acid equivalent, as shown in Equation (4). (4) % FRAP =Absorbance of Absorbance of Sample/Absorbance of Ascorbic Acid ×100

calf thymus DNA (CT-DNA) = test: CT-DNA electronic absorption titration (Wolfe–Shimer); assay type: binding; conditions: for CT-DNA-Cmp. Kb (M^−1) × 10^5: intrinsic binding constant, absorption titration, PBS pH 7.2
Description: The interaction of the L1–L5 and complexes Q1–Q15 with calf thymus-DNA was carried out in a Phosphate buffer saline solution pH 7.2 stored at 4 °C. The DNA stock solution was prepared by dissolving CT-DNA sodium salt in Phosphate buffer saline solution with continuous stirring overnight. It was filtered and stored at 4 °C and used within four days. […] A fixed amount of the L1–L5 and complexes Q1–Q15 (50 µM) were prepared by dissolving an appropriate amount in DMSO. […] Therefore, in all the experimental of the interaction of L1–L5 and complexes Q1–Q15 with biomolecules, the final concentration of DMSO in the incubation mixture was ~2% (v/v).
The binding modes of L1–L5 and complexes Q1–Q15 to CT-DNA were characterized through electronic absorption titration by varying concentrations of CT-DNA (0–30 µM) in phosphate buffer saline solution against fixed concentrations (20 µM) of L1–L5 and complexes Q1–Q15. […] The absorbance of CT-DNA is cancelled by adding equivalent amounts of CT-DNA to both the tested compounds and the reference solutions.

CT-DNA-EB adduct = test: Fluorescence competitive displacement of ethidium bromide from CT-DNA; assay type: binding, calf; conditions: for CT-DNA-EB-Complex Ksv (M^−1) × 10^4: Stern–Volmer quenching constant, EB displacement, 25 °C; for CT-DNA-EB-Complex Kq (M^−1S^−1) × 10^12: bimolecular quenching constant, Ksv = Kqτo, τo 10^−8 s; for CT-DNA-EB-Complex Kbin (M^−1) × 10^5: binding constant from double-logarithmic plot
Description: The Stern–Volmer plot approach was used based on the fact that the Stern–Volmer plots for Q1–Q15 (Figure 5c), were linear an indication of only one mechanism for the quenching fluorescence, i.e., either dynamic or static. […] (1) Ksv=Kqτo where Ksv, Kq, and τo represent Stern–Volmer quenching constant, bimolecular quenching constant, and an average lifetime of the fluorophore in the absence of the quencher, respectively. τₒ normally takes about 10^−8 s in biomacromolecules.
The double-logarithmic Equation (2) was used in determining the binding constant of complexes Q1–Q15 and CT-DNA. (2) logFo−F/F=logKb+n logQ
A competitive displacement study was carried out using fluorescence spectroscopy between CT-DNA pre-treated with ethidium bromide (EB) and complexes Q1–Q15 to establish the complexes′ actual mode of binding to CT-DNA. […] The competitive luminescence displacement assay was done using a modified method. Pre-treated 15 µM solution of EB with 15 µM of CT-DNA was prepared in a phosphate buffer of pH 7.2 and left to equilibrate for 30 min. Keeping CT-DNA-EB concentrations constant, different concentrations (0–20 µM) of the complexes were added at 8 min incubation interval at room temperature. The fluorescence quenching ability of CT-DNA bound EB by the complexes were recorded in the wavelength range of 530–700 nm with an excitation wavelength at 525 nm at 25 °C. (6) Fo/F=1+KSVQ=1+KqτoQ
A Stern–Volmer (Equation (6)) was used to evaluate the CT-DNA-EB fluorescence quenching of the complexes. Where Fo and F denote the relative fluorescence intensities of CT-DNA in the absence and presence of the quencher, Ksv, Stern–Volmer quenching constant, [Q], quencher concentration, Kq, bimolecular quenching constant and τo, average lifetime of the fluorophore in the absence of the quencher which is typically equal to 10^−8 s in biomacromolecules.

[8] = system: Klebsiella pneumoniae ATCC 31488; test: Minimum inhibitory concentration (MIC), spotting on Müeller–Hinton agar; assay type: cell-based; conditions: versus the standard (0.8 µg/mL)
Description: (§1) Sterilized Nutrient agar medium was first prepared by dissolving 38 g of Müeller–Hinton agar (MHA) (Biolab, Midrand, Africa) in distilled water (1 L). […] The cooled Agar medium was poured in Petri dishes while ensuring a uniform 4 mm depth of the medium and cooling further to ambient temperature.
(§2) These bacteria were inoculated in a sterilized Nutrient Broth (NB) (Biolab, Midrand, Africa) through streak plate technique and incubated at 37 °C for 18 h. The nutrient broth was sterilized by dissolving 1.3 g in distilled water (100 mL). Ca. 10 mL of the nutrient broth was transferred into a cotton wool-plugged test tubes and wrapped with an aluminium foil. […] Following this was the isolation of a single colony of the bacteria and inoculated into a 10 mL sterile NB which was then incubated in a shaking incubator at 37 °C for 18 h. Each of the bacteria strain concentrations was adjusted with sterile distilled water to get a final concentration of 1.5 × 10^8 cfu/mL, i.e., 0.5 Mc Farland’s Standard using a densitometer (Mc Farland Latvia). The bacteria were lawn inoculated on the set MHA Petri dishes using a sterile cotton swab. Screening of L1–L5 and Q1–Q15 for antibacterial activity was first carried out by spotting 5 µL of their solution (prepared from the dissolution of 1000 µg of the L1–L5 and Q1–Q15 in 1 mL dimethyl sulfoxide (DMSO)) on an MHA petri dish and incubated at 37 °C for 18 h. The antibacterial activity was determined by looking out for a clear zone at the spotting point.

[9] = system: Salmonella typhimurium ATCC 14026; test: as above; assay type: cell-based; conditions: Gram − Ve; S. typhi; 37 °C, 18 h
Description: as §1, §2

[10] = system: Staphylococcus aureus ATCC 700699 (methicillin-resistant); test: as above; assay type: cell-based; conditions: Gram + Ve; methicillin-resistant S. aureus; 37 °C, 18 h
Description: as §1, §2

[11] = system: Staphylococcus aureus ATCC 25923; test: as above; assay type: cell-based; conditions: Gram + Ve; S. aureus; 37 °C, 18 h
Description: as §1, §2

[12] = system: Escherichia coli ATCC 25922; test: as above; assay type: cell-based; conditions: Gram − Ve; E. coli; 37 °C, 18 h
Description: as §1, §2

[13] = system: Pseudomonas aeruginosa ATCC 27853; test: as above; assay type: cell-based; conditions: Gram − Ve; P. aeruginosa; 37 °C, 18 h
Description: as §1, §2

Chain of bovine serum albumin (BSA) (P02769 25-607): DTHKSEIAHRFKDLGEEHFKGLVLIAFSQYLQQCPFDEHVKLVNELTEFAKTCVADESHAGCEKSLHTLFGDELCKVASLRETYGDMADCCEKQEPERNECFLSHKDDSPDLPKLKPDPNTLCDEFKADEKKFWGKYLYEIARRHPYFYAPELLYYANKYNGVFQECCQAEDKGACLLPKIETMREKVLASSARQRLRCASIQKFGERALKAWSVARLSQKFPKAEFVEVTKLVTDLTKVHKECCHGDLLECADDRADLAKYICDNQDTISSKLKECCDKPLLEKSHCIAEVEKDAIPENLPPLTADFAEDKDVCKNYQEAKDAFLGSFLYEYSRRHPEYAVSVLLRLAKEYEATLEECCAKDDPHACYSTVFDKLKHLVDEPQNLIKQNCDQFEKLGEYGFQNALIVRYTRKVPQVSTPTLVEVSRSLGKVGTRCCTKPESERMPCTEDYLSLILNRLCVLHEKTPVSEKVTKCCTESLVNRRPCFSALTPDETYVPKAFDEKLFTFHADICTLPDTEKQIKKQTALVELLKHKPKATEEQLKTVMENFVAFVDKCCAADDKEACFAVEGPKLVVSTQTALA

| Compound | Minimum inhibitory concentration, MRSA [1] [µg/mL] | Minimum inhibitory concentration, ST [2] [µg/mL] | Minimum inhibitory concentration, PA [3] [µg/mL] | Minimum inhibitory concentration, SA [4] [µg/mL] | Minimum inhibitory concentration, EC [5] [µg/mL] | Protein-Complex Kb (M^−1) × 10^4 [6] | Antioxidant (IC50 mg/mL) FRAP [7] [mg/mL] | CT-DNA-Cmp. Kb (M^−1) × 10^5 (calf thymus DNA (CT-DNA)) | CT-DNA-EB-Complex Ksv (M^−1) × 10^4 (CT-DNA-EB adduct) | CT-DNA-EB-Complex Kq (M^−1S^−1) × 10^12 (CT-DNA-EB adduct) | CT-DNA-EB-Complex Kbin (M^−1) × 10^5 (CT-DNA-EB adduct) | activity times higher than the standard against K. pneumoniae [8] [times] | Minimum inhibitory concentration, ST [9] [µg/mL] | Minimum inhibitory concentration, MRSA [10] [µg/mL] | Minimum inhibitory concentration, SA [11] [µg/mL] | Minimum inhibitory concentration, EC [12] [µg/mL] | Minimum inhibitory concentration, PA [13] [µg/mL] | Protein-Complex Kb (M^−1) × 10^4 ([6]; BSA absorption titration, 280 nm, 25 °C) | hypochromic shift in the absorption bands on addition of CT-DNA (calf thymus DNA (CT-DNA); absorption titration with CT-DNA) |
| --- | --- | --- | --- | --- | --- | --- | --- | --- | --- | --- | --- | --- | --- | --- | --- | --- | --- | --- | --- |
| O=C(O)c1cn(C2CC2)c2cc(N3CCNCC3)c(F)cc2c1=O [Ciprofloxacin] | 25 (≈ 75.4 µM) | 0.4 (≈ 1.21 µM) | 0.2 (≈ 0.604 µM) | 25 (≈ 75.4 µM) | 1.6 (≈ 4.83 µM) |  |  |  |  |  |  |  |  |  |  |  |  |  |  |
| C(=NCc1cccs1)c1ccc2ccccc2n1.C(=NCc1cccs1)c1ccc2ccccc2n1.O=[N+]([O-])[O-].[Ag+] [Complex Q5, [Ag(L5)2]NO3] |  |  |  |  |  | 5.95 (M^−1) × 10^4 | 2.04 ± 0.0032 | 4.00 (M^−1) × 10^5 | 2.31 (M^−1) × 10^4 | 2.31 (M^−1S^−1) × 10^12 | 1.03 (M^−1) × 10^5 | 32 | 12.5 | 100 | 50 | 1.6 |  |  |  |
| Clc1ccc(N=Cc2ccc3ccccc3n2)cc1.Clc1ccc(N=Cc2ccc3ccccc3n2)cc1.[Ag+].[O-][Cl+3]([O-])([O-])[O-] [Complex Q8, [Ag(L3)2]ClO4] |  |  |  |  |  | 9.48 (M^−1) × 10^4 | 3.27 ± 0.093 | 30.0 (M^−1) × 10^5 | 3.98 (M^−1) × 10^4 | 3.98 (M^−1S^−1) × 10^12 | 1.02 (M^−1) × 10^5 | 64 | 25 | 25 | 50 | 1.6 | 0.1 |  |  |
| [Ag+].[O-][Cl+3]([O-])([O-])[O-] [AgClO4, silver perchlorate, reference compound] |  |  |  |  |  |  | 0.88 ± 0.051 | 3.30 (M^−1) × 10^5 | 3.31 (M^−1) × 10^4 | 3.31 (M^−1S^−1) × 10^12 | 6.00 (M^−1) × 10^5 |  | 0.2 | 6.25 | 3.125 | 25 | 0.8 | 4.82 (M^−1) × 10^4 | 23.64–50.86% |
| Clc1ccc(N=Cc2ccc3ccccc3n2)cc1.Clc1ccc(N=Cc2ccc3ccccc3n2)cc1.O=S(=O)([O-])C(F)(F)F.[Ag+] [Complex Q13, [Ag(L3)2]CF3SO3] |  |  |  |  |  | 2.89 (M^−1) × 10^4 | 2.22 ± 0.0055 | 4.29 (M^−1) × 10^5 | 3.33 (M^−1) × 10^4 | 3.33 (M^−1S^−1) × 10^12 | 5.74 (M^−1) × 10^5 |  | 50 | 50 | 25 | 25 | 12.5 |  |  |
